Results as given in article PMC10894237, “KDM3B inhibitors disrupt the oncogenic activity of PAX3-FOXO1 in fusion-positive rhabdomyosarcoma” (Nature Communications, 2024).

Tests used:
[1] = test system: A673; assay: cells; design: 72 h cell growth/viability dose-response in pediatric solid tumour lines and primary fibroblasts; settings: Homo sapiens, A673, 72 h; read-out: P3FI-63 EC50 (72 hr)
From the text: (§1) The half-maximal effective concentrations (EC50) of P3FI-63 on FP-RMS cell lines RH4, RH30, and SCMC were in the single digit µM range (Fig. 1E). Next, we tested other pediatric solid cancer lines to determine broader applicability of P3FI-63.

[2] = test system: OSA; assay: cells; design: 72 h cell growth/viability dose-response in pediatric solid tumour lines and primary fibroblasts; settings: Fibroblast, 72 h; read-out: P3FI-63 EC50 (72 hr)
From the text: as §1

[3] = test system: HU09; assay: cells; design: 72 h cell growth/viability dose-response in pediatric solid tumour lines and primary fibroblasts; settings: Fibroblast, 72 h; read-out: P3FI-63 EC50 (72 hr)
From the text: as §1

[4] = test system: TC-32; assay: cells; design: 72 h cell growth/viability dose-response in pediatric solid tumour lines and primary fibroblasts; settings: Homo sapiens, TC-32, 72 h; read-out: P3FI-63 EC50 (72 hr)
From the text: as §1

[5] = test system: 7250; assay: cells; design: 72 h cell growth/viability dose-response in pediatric solid tumour lines and primary fibroblasts; settings: 72 h, primary human fibroblast; read-out: P3FI-63 EC50 (72 hr), fibroblast
From the text: as §1

[6] = test system: CTR; assay: cells; design: 72 h cell growth/viability dose-response in pediatric solid tumour lines and primary fibroblasts; settings: Fibroblast, 72 h; read-out: P3FI-63 EC50 (72 hr)
From the text: as §1

[7] = biological target: T1, KDM3B (Homo sapiens, UniProt Q7LBC6); assay: cell-free TR-FRET demethylase inhibition assay (Eurofins); format: biochemical
T1 sequence (Q7LBC6 2-1761): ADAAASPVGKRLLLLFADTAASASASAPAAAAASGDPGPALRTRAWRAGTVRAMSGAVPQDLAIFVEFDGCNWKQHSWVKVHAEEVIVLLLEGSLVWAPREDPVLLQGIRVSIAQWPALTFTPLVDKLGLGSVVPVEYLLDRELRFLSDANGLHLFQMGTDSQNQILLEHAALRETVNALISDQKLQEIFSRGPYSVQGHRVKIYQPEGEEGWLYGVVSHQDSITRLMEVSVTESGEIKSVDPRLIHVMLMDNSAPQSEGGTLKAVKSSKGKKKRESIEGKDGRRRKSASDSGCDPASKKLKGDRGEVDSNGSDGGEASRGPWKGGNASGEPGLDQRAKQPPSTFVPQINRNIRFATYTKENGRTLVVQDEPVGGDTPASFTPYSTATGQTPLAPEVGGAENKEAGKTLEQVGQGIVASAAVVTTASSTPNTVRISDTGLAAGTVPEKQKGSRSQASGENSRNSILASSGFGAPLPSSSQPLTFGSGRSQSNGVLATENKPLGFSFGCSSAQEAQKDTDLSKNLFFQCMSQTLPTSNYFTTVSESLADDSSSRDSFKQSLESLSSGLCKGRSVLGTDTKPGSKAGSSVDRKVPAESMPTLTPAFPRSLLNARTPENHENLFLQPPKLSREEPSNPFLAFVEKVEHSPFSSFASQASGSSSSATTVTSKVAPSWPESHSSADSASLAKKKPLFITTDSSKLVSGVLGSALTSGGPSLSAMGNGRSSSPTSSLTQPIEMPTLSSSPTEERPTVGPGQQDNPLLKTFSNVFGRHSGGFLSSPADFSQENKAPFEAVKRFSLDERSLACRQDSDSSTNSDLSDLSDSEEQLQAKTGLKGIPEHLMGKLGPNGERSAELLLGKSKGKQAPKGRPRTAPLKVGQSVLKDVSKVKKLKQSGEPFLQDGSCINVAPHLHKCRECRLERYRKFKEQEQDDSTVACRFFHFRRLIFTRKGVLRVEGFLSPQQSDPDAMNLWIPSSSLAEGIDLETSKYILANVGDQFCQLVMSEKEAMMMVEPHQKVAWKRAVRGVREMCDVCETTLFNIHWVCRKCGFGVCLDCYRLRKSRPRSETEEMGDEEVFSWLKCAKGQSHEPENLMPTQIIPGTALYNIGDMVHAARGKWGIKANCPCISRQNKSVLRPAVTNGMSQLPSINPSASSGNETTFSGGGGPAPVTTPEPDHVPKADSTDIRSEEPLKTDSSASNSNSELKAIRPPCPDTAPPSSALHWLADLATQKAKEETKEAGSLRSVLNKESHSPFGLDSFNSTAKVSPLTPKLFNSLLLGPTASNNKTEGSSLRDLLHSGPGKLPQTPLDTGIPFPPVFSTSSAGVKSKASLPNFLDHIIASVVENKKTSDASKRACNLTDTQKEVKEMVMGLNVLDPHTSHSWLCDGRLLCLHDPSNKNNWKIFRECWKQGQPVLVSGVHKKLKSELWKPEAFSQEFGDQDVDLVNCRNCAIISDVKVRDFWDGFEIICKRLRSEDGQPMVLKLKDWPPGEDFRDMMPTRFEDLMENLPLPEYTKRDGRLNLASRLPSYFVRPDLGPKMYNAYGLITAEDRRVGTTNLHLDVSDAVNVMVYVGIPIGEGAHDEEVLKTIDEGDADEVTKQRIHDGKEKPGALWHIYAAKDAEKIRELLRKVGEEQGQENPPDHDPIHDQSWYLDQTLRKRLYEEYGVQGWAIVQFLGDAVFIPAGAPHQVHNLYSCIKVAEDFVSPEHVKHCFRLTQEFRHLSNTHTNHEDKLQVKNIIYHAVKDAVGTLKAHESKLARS

[8] = biological target: T1, KDM3B; assay: SPR (Biacore T200); also WaterLOGSY and CPMG ligand-observed NMR, and enzyme inhibition (TR-FRET); format: binding; design: full-length KDM3B (His6-Avi-KDM3B) for SPR; enzymatic domain (truncated) for NMR

IC50 [7] [µM] | Kd [8] [µM] | Structure (SMILES) | EC50 [1] [µM] | EC50 [2] [µM] | EC50 [3] [µM] | EC50 [4] [µM] | EC50 [5] [µM] | EC50 [6] [µM]
7 |  | Cc1cc(C)cc(C(=O)NNC(=O)c2ccccn2)c1 [P3FI-63] | 3.7 | 7.5 | 3.1 | 1.7 | 6.62 | 2.92
 | 7.68 | O=C(NNc1ccccn1)c1ccccn1 [P3FI-90] |  |  |  |  |  | 
